The values below come from US7361665B2, “Inhibitors of c-Jun N-terminal kinases (JNK) and other protein kinases” (Vertex Pharmaceuticals Incorporated, priority 2002, dated 2008).

One assay addresses T1, human Src kinase (Homo sapiens, UniProt P12931).
T1 construct: full length recombinant human Src kinase (from Upstate Biotechnology, cat. no. 14-117); purchased Upstate Biotechnology 14-117; host or cells: baculovirus-infected cells ('baculo viral cells')
The experiment in a line: Src inhibition assay (radioactivity-based assay A or spectrophotometric assay B). Format: biochemical. From the text:
The compounds of this invention can be evaluated as inhibitors of human Src kinase using either a radioactivity-based assay or spectrophotometric assay.
(§1) The compounds can be assayed as inhibitors of full length recombinant human Src kinase (from Upstate Biotechnology, cat. no. 14-117) expressed and purified from baculo viral cells. Src kinase activity is monitored by following the incorporation of ^33P from ATP into the tyrosine of a random poly Glu-Tyr polymer substrate of composition, Glu:Tyr=4:1 (Sigma, cat. no. P-0275). The following are the final concentrations of the assay components: 0.05 M HEPES, pH 7.6, 10 mM MgCl2, 2 mM DTT, 0.25 mg/ml BSA, 10 μM ATP (1-2 μCi ^33P-ATP per reaction), 5 mg/ml poly Glu-Tyr, and 1-2 units of recombinant human Src kinase. In a typical assay, all the reaction components with the exception of ATP are pre-mixed and aliquoted into assay plate wells. […] The plates are sealed and the amount of radioactivity associated with the filters is quantified on a TopCount scintillation counter. The radioactivity incorporated is plotted as a function of the inhibitor concentration. […]
(§2) In a typical assay, all the reaction components with the exception of ATP are pre-mixed and aliquoted into assay plate wells. […] The absorbance change at 340 nm with time, the rate of the reaction, is monitored on a molecular devices plate reader. […]

The next assay addresses human Lck kinase. The assay can be described thus: Lck inhibition assay (radioactivity-based assay A or spectrophotometric assay B). Format: biochemical. The procedure: The compounds of this invention can be evaluated as inhibitors of human Lck kinase using either a radioactivity-based assay or spectrophotometric assay.
as §1, with “compounds are” for “compounds can be”, “length bovine thymus Lck” for “length recombinant human Src”, “no. 14-106)” for “no. 14-117)”, “cells. Lck” for “cells. Src”, “components: 0.025” for “components: 0.05”
as §2

T1 sequence (P12931 whole entry): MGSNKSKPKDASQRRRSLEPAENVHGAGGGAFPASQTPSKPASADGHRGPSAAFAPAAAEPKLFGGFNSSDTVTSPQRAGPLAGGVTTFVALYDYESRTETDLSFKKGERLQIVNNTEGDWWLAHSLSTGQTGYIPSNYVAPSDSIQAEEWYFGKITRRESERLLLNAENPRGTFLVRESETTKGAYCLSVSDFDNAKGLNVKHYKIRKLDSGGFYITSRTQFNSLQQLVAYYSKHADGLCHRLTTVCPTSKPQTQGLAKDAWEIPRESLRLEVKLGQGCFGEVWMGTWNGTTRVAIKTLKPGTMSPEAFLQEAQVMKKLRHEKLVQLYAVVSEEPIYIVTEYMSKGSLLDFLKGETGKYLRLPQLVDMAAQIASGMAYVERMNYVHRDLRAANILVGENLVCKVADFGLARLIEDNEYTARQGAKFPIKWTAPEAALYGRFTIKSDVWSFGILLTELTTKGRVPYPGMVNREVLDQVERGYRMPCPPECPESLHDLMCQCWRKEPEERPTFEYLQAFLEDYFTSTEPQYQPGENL

By Ki is commonly meant the equilibrium dissociation constant of an inhibitor or competing ligand from its target. In the case of `Cc1nc(-c2cccs2)sc1-c1ccnc(Nc2ccc(S(N)(=O)=O)cc2)n1` [IIc-22], the Ki on human Src kinase and at human Lck kinase was less than 100 nM in each case.
